US20250295646A1, “METHODS OF USE OF T-TYPE CALCIUM CHANNEL MODULATORS” (Praxis Precision Medicines, Inc., priority 2022, published 2025)

Test system: adult patients with essential tremor
Assay: Example 16: video-reviewed TETRAS performance subscale and upper limb score; as to TETRAS Performance Subscale Total Score by Video Review, Change from Baseline, Mean (SD): test concentration or dose not given here; as to TETRAS Performance Subscale Total Score by Video Review, Change from Baseline, Median: test concentration or dose not given here; as to TETRAS Performance Subscale Total Score by Video Review, Mean (SD): test concentration or dose not given here; as to TETRAS Performance Subscale Total Score by Video Review, Median: test concentration or dose not given here
Assay type: in vivo, human
From the text: Video-reviewed TETRAS Analyses Video reviewed TETRAS assessments were generally consistent with those conducted at the clinic. Video reviewed TETRAS performance subscale total scores are summarized for Part A, the open-label titration phase of Part B, and the randomized withdrawal phase of Part B in Table 42, Table 43, and Table 44.
Video reviewed upper limb score values were generally consistent with those conducted at the clinic and are summarized for Part A, the open-label titration phase of Part B, and the randomized withdrawal phase of Part B in Table 45, Table 46, and Table 47, respectively.

[1] = Day 21, Part B Open-Label Titration Phase (N = 17)
[2] = Day 21, Part B, Formula (I) arm (N = 6)
[3] = Day 42 6 hours Post - dose (Randomization Baseline), Part B, Formula (I) arm (N = 6)
[4] = Day 42, 6 hours Post - dose, Part B Open-Label Titration Phase (N = 17)
[5] = Day 42, 6 hours Post - dose, Part B, Formula (I) arm (N = 6)
[6] = Day 42, Pre - dose, Part B Open-Label Titration Phase (N = 17)
[7] = Day 42, Pre - dose, Part B, Formula (I) arm (N = 6)
[8] = Day 56, Part B, Formula (I) arm (N = 6)
[9] = Day 70, Part B, Formula (I) arm (N = 6)

CC(C)(C)NC(=O)CN1CCC(CNC(=O)c2cc(F)cc(Cl)c2)CC1 [compound of formula (I), N-((1-(2-(tert-butylamino)-2-oxoethyl)piperidin-4-yl)methyl)-3-chloro-5-fluorobenzamide]
TETRAS Upper Limb Score by Video Review, Mean (SD) [1]: 9.63 (2.478)
TETRAS Upper Limb Score by Video Review, Median [1]: 10.00
TETRAS Upper Limb Score by Video Review, Percentage Change from Baseline in Tremor Amplitude, Mean (SD) [1]: −9.74 (24.458) %
TETRAS Upper Limb Score by Video Review, Percentage Change from Baseline in Tremor Amplitude, Median [1]: −9.15%
TETRAS Performance Subscale Total Score by Video Review, Change from Baseline, Mean (SD) [2]: 0.08 (2.396)
TETRAS Performance Subscale Total Score by Video Review, Change from Baseline, Median [2]: 0.50
TETRAS Performance Subscale Total Score by Video Review, Mean (SD) [2]: 22.42 (3.277)
TETRAS Performance Subscale Total Score by Video Review, Median [2]: 22.00
TETRAS Performance Subscale Total Score by Video Review, Percentage Change from Baseline in Tremor Amplitude, Mean (SD) [2]: 0.67 (15.665) %
TETRAS Performance Subscale Total Score by Video Review, Percentage Change from Baseline in Tremor Amplitude, Median [2]: 3.53%
TETRAS Upper Limb Score by Video Review, Change from Baseline, Mean (SD) [2]: 0.17 (1.211)
TETRAS Upper Limb Score by Video Review, Change from Baseline, Median [2]: 0.00
TETRAS Upper Limb Score by Video Review, Mean (SD) [2]: 10.08 (0.861)
TETRAS Upper Limb Score by Video Review, Median [2]: 10.00
TETRAS Upper Limb Score by Video Review, Percentage Change from Baseline in Tremor Amplitude, Mean (SD) [2]: 2.64 (20.424) %
TETRAS Upper Limb Score by Video Review, Percentage Change from Baseline in Tremor Amplitude, Median [2]: 0.00%
TETRAS Performance Subscale Total Score by Video Review, Mean (SD) [3]: 19.92 (5.229)
TETRAS Performance Subscale Total Score by Video Review, Median [3]: 20.25
TETRAS Upper Limb Score by Video Review, Mean (SD) [3]: 8.42 (2.417)
TETRAS Upper Limb Score by Video Review, Median [3]: 9.25
TETRAS Performance Subscale Total Score by Video Review, Change from Baseline, Mean (SD) [4]: −3.18 (3.133)
TETRAS Performance Subscale Total Score by Video Review, Change from Baseline, Median [4]: −3.50
TETRAS Performance Subscale Total Score by Video Review, Mean (SD) [4]: 20.32 (7.564)
TETRAS Performance Subscale Total Score by Video Review, Median [4]: 20.00
TETRAS Performance Subscale Total Score by Video Review, Percentage Change from Baseline in Tremor Amplitude, Mean (SD) [4]: −18.90 (18.026) %
TETRAS Performance Subscale Total Score by Video Review, Percentage Change from Baseline in Tremor Amplitude, Median [4]: −22.26%
TETRAS Upper Limb Score by Video Review, Change from Baseline, Mean (SD) [4]: −1.77 (1.633)
TETRAS Upper Limb Score by Video Review, Change from Baseline, Median [4]: −1.50
TETRAS Upper Limb Score by Video Review, Mean (SD) [4]: 8.95 (2.902)
TETRAS Upper Limb Score by Video Review, Median [4]: 9.00
TETRAS Upper Limb Score by Video Review, Percentage Change from Baseline in Tremor Amplitude, Mean (SD) [4]: −26.26 (22.691) %
TETRAS Upper Limb Score by Video Review, Percentage Change from Baseline in Tremor Amplitude, Median [4]: −25.01%
TETRAS Performance Subscale Total Score by Video Review, Change from Baseline, Mean (SD) [5]: −2.42 (3.484)
TETRAS Performance Subscale Total Score by Video Review, Change from Baseline, Median [5]: −3.00
TETRAS Performance Subscale Total Score by Video Review, Percentage Change from Baseline in Tremor Amplitude, Mean (SD) [5]: −14.27 (20.962) %
TETRAS Performance Subscale Total Score by Video Review, Percentage Change from Baseline in Tremor Amplitude, Median [5]: −19.21%
TETRAS Upper Limb Score by Video Review, Change from Baseline, Mean (SD) [5]: −1.50 (2.025)
TETRAS Upper Limb Score by Video Review, Change from Baseline, Median [5]: −1.25
TETRAS Upper Limb Score by Video Review, Percentage Change from Baseline in Tremor Amplitude, Mean (SD) [5]: −21.52 (28.723) %
TETRAS Upper Limb Score by Video Review, Percentage Change from Baseline in Tremor Amplitude, Median [5]: −21.24%
TETRAS Performance Subscale Total Score by Video Review, Change from Baseline, Mean (SD) [6]: −2.32 (2.272)
TETRAS Performance Subscale Total Score by Video Review, Change from Baseline, Median [6]: −2.50
TETRAS Performance Subscale Total Score by Video Review, Mean (SD) [6]: 21.18 (7.916)
TETRAS Performance Subscale Total Score by Video Review, Median [6]: 19.50
TETRAS Performance Subscale Total Score by Video Review, Percentage Change from Baseline in Tremor Amplitude, Mean (SD) [6]: −14.41 (13.541) %
TETRAS Performance Subscale Total Score by Video Review, Percentage Change from Baseline in Tremor Amplitude, Median [6]: −16.46%
TETRAS Upper Limb Score by Video Review, Change from Baseline, Mean (SD) [6]: −1.41 (1.429)
TETRAS Upper Limb Score by Video Review, Change from Baseline, Median [6]: −1.00
TETRAS Upper Limb Score by Video Review, Mean (SD) [6]: 9.32 (2.943)
TETRAS Upper Limb Score by Video Review, Median [6]: 9.50
TETRAS Upper Limb Score by Video Review, Percentage Change from Baseline in Tremor Amplitude, Mean (SD) [6]: −21.20 (19.707) %
TETRAS Upper Limb Score by Video Review, Percentage Change from Baseline in Tremor Amplitude, Median [6]: −17.46%
TETRAS Performance Subscale Total Score by Video Review, Change from Baseline, Mean (SD) [7]: −1.33 (2.338)
TETRAS Performance Subscale Total Score by Video Review, Change from Baseline, Median [7]: −1.00
TETRAS Performance Subscale Total Score by Video Review, Mean (SD) [7]: 21.00 (5.263)
TETRAS Performance Subscale Total Score by Video Review, Median [7]: 22.25
TETRAS Performance Subscale Total Score by Video Review, Percentage Change from Baseline in Tremor Amplitude, Mean (SD) [7]: −8.23 (14.278) %
TETRAS Performance Subscale Total Score by Video Review, Percentage Change from Baseline in Tremor Amplitude, Median [7]: −6.88%
TETRAS Upper Limb Score by Video Review, Change from Baseline, Mean (SD) [7]: −0.75 (0.935)
TETRAS Upper Limb Score by Video Review, Change from Baseline, Median [7]: −0.50
TETRAS Upper Limb Score by Video Review, Mean (SD) [7]: 9.17 (1.862)
TETRAS Upper Limb Score by Video Review, Median [7]: 9.25
TETRAS Upper Limb Score by Video Review, Percentage Change from Baseline in Tremor Amplitude, Mean (SD) [7]: −12.31 (14.247) %
TETRAS Upper Limb Score by Video Review, Percentage Change from Baseline in Tremor Amplitude, Median [7]: −9.15%
TETRAS Performance Subscale Total Score by Video Review, Change from Baseline, Mean (SD) [8]: −1.33 (4.771)
TETRAS Performance Subscale Total Score by Video Review, Change from Baseline, Median [8]: −0.50
TETRAS Performance Subscale Total Score by Video Review, Change from Randomization, Mean (SD) [8]: 1.08 (2.311)
TETRAS Performance Subscale Total Score by Video Review, Change from Randomization, Median [8]: 0.75
TETRAS Performance Subscale Total Score by Video Review, Mean (SD) [8]: 21.00 (6.542)
TETRAS Performance Subscale Total Score by Video Review, Median [8]: 21.75
TETRAS Performance Subscale Total Score by Video Review, Percentage Change from Baseline in Tremor Amplitude, Mean (SD) [8]: −6.83 (27.753) %
TETRAS Performance Subscale Total Score by Video Review, Percentage Change from Baseline in Tremor Amplitude, Median [8]: −3.23%
TETRAS Performance Subscale Total Score by Video Review, Percentage Change from Randomization in Tremor Amplitude, Mean (SD) [8]: 6.68 (14.469) %
TETRAS Performance Subscale Total Score by Video Review, Percentage Change from Randomization in Tremor Amplitude, Median [8]: 5.12%
TETRAS Upper Limb Score by Video Review, Change from Baseline, Mean (SD) [8]: −0.75 (2.115)
TETRAS Upper Limb Score by Video Review, Change from Baseline, Median [8]: −0.25
TETRAS Upper Limb Score by Video Review, Change from Randomization, Mean (SD) [8]: 0.75 (0.612)
TETRAS Upper Limb Score by Video Review, Change from Randomization, Median [8]: 0.50
TETRAS Upper Limb Score by Video Review, Mean (SD) [8]: 9.17 (2.658)
TETRAS Upper Limb Score by Video Review, Median [8]: 10.00
TETRAS Upper Limb Score by Video Review, Percentage Change from Baseline in Tremor Amplitude, Mean (SD) [8]: −10.13 (31.224) %
TETRAS Upper Limb Score by Video Review, Percentage Change from Baseline in Tremor Amplitude, Median [8]: −4.57%
TETRAS Upper Limb Score by Video Review, Percentage Change from Randomization in Tremor Amplitude, Mean (SD) [8]: 12.91 (10.020) %
TETRAS Upper Limb Score by Video Review, Percentage Change from Randomization in Tremor Amplitude, Median [8]: 9.15%
TETRAS Performance Subscale Total Score by Video Review, Change from Baseline, Mean (SD) [9]: 0.60 (2.104)
TETRAS Performance Subscale Total Score by Video Review, Change from Baseline, Median [9]: 0.50
TETRAS Performance Subscale Total Score by Video Review, Change from Randomization, Mean (SD) [9]: 3.60 (3.343)
TETRAS Performance Subscale Total Score by Video Review, Change from Randomization, Median [9]: 4.50
TETRAS Performance Subscale Total Score by Video Review, Mean (SD) [9]: 22.00 (4.962)
TETRAS Performance Subscale Total Score by Video Review, Median [9]: 22.50
TETRAS Performance Subscale Total Score by Video Review, Percentage Change from Baseline in Tremor Amplitude, Mean (SD) [9]: 3.98 (13.794) %
TETRAS Performance Subscale Total Score by Video Review, Percentage Change from Baseline in Tremor Amplitude, Median [9]: 3.53%
TETRAS Performance Subscale Total Score by Video Review, Percentage Change from Randomization in Tremor Amplitude, Mean (SD) [9]: 21.30 (20.204) %
TETRAS Performance Subscale Total Score by Video Review, Percentage Change from Randomization in Tremor Amplitude, Median [9]: 27.66%
TETRAS Upper Limb Score by Video Review, Change from Baseline, Mean (SD) [9]: 0.30 (0.908)
TETRAS Upper Limb Score by Video Review, Change from Baseline, Median [9]: 0.50
TETRAS Upper Limb Score by Video Review, Change from Randomization, Mean (SD) [9]: 1.80 (2.139)
TETRAS Upper Limb Score by Video Review, Change from Randomization, Median [9]: 2.50
TETRAS Upper Limb Score by Video Review, Mean (SD) [9]: 9.80 (1.924)
TETRAS Upper Limb Score by Video Review, Median [9]: 9.50
TETRAS Upper Limb Score by Video Review, Percentage Change from Baseline in Tremor Amplitude, Mean (SD) [9]: 5.17 (15.525) %
TETRAS Upper Limb Score by Video Review, Percentage Change from Baseline in Tremor Amplitude, Median [9]: 9.15%
TETRAS Upper Limb Score by Video Review, Percentage Change from Randomization in Tremor Amplitude, Mean (SD) [9]: 25.58 (31.214) %
TETRAS Upper Limb Score by Video Review, Percentage Change from Randomization in Tremor Amplitude, Median [9]: 38.10%
